Data from US20240043943A1, “METHODS AND COMPOSITIONS FOR PROTEASE REPORTER ASSAYS AND MODULATORS” (712 NORTH, INC., priority 2021, published 2024).
“Also recorded” adds a separate entry of the source. Counter-ions that a name gives are not always drawn. Like-named read-outs stand apart in the source and are kept apart here. Starred links: 1 amine or outer side, 2 acyl side, 3 side chain; linkers in the order of their positions; H or OH if unused. Positions of bridges follow the written chain, without caps; N, C: chain ends. Non-standard residues stand in square brackets, D forms with d. Residues, ends and D or L forms follow the SMILES beside them. Chains are numbered I, II in the order given. Actinocin(9to1) = Cc1c2oc3c(C)ccc(C(=O)[*:1])c3nc-2c(C(=O)[*:2])c(N)c1=O; NMeV = CN[C@H](C(=O)O)C(C)C; Sar = CNCC(=O)O

Experiments:
OMA1 protease [1] = target: T1, OMA1 protease (Homo sapiens, UniProt Q96E52); experiment: Rep#15 / Luke-S1 OMA1 reporter bioluminescence assay in Hek293T cells; assay type: cell-based; set-up: The OMA1 enzyme is dormant under physiological cell culture conditions in these cells; endogenous in cells; host or cells: Hek293T cells, transiently or stably (Luke-S1 line, ATCC PTA-127022) expressing reporter #15; settings: for OMA1 modulating properties: drugs identified with the OMA1 assays (FIG. 17, FIG. 10)
T1 sequence (Q96E52 144-524): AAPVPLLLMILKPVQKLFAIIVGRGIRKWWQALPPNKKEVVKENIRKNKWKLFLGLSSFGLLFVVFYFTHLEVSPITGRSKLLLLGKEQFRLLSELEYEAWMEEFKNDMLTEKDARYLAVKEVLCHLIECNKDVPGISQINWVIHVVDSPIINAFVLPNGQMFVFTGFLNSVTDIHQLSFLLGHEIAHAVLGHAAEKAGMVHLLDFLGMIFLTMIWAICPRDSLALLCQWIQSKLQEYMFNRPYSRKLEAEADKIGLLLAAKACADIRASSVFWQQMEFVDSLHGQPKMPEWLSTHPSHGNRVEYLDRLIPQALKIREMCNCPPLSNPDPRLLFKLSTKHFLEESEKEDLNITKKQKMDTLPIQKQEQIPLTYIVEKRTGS
From the text: Example 1 provides a nonlimiting example of generation and use of a reporter of present invention and illustrates its function. To this end, generation and use of reporter gene #01 (SEQ ID NO: 01) and reporter gene #15 (SEQ ID NO: 15) are described and their function compared to each other. The general design of a reporter of present invention is illustrated in FIG. 1A and its working principle in FIG. 1B. A reporter in general, and reporter gene #01 and reporter gene #15 in particular, can be generated as follows. DNA sequences of a reporter may be codon-optimized in silico or by any other way for expression in a suitable host. DNA sequences of reporter genes #01 and #15 were codon-optimized for expression in humans (SEQ ID NO: 02 and SEQ ID NO: 16, respectively). The (optimized) sequences were synthesized and cloned into a pcDNA3.1 expression vector under the control of a CMV promotor (see FIG. 1 for an illustration of such vector). Of course, an expression system and a host should match for best results. The host in this example were Hek293T cells, which were maintained under standard culture conditions in DMEM with 10% Fetal Bovine Serum and 1% Pen/Strep. For an experiment, Hek293T cells were seeded in opaque white tissue-culture treated 96-well plates at 80% confluency and transfected with vectors carrying reporter gene #01 and reporter gene #15 and 24 hours later incubated for 30 minutes at 37° C. in OptiMEM or in OptiMEM with 10 μM CCCP. After 30 minutes, the OptiMEM cell-culture media was replaced with luciferase substrate (furimazine, Promega) diluted 1:100 in OptiMEM, and bioluminescence was measured with a Fluoroskan Ascent FL (Thermo Scientific) using a 517 nm single-pass filter and 200 milliseconds integration time. […] Reporter #01 comprises a large part of OPA1's amino-terminus as mitochondrial targeting sequence, which is cleaved by the mitochondrial processing peptidase upon mitochondrial import (see Example 2). Reporter #15 was initially envisioned as a control for reporter #01. Reporter #15 therefore lacks the first 66 amino acids of reporter #01 believed to be essential for mitochondrial import.
Example 5 illustrates how mitochondrial toxicity can be measured with reporter and assays of present invention. The OMA1-OPA1 pathway basically serves as a “canary-in-the-coalmine” for a mitochondrial deterioration. […] Hek293T cells expressing reporter #01 and #15 were exposed to CCCP, tipranavir and sorafenib (in OptiMEM) for 30 minutes before the medium was replaced with furimazine (1:100), and bioluminescence measured.
The following non-limiting examples illustrate in more details the in vivo assessment of OMA1 protease activity utilizing an artificial luciferase reporter of present invention stably expressed in Hek293T cells.

OPA1 = settings: literature; cited from earlier work
OMA1 protease [2] = target: T1, OMA1 protease; settings: literature; cited from earlier work
OMA1 protease [3] = target: T1, OMA1 protease; experiment: Rep#15 assay with phenanthroline preincubation before CCCP (OMA1 inhibitor control); assay type: cell-based; set-up: The OMA1 enzyme is dormant under physiological cell culture conditions in these cells; endogenous in cells; host or cells: Hek293T cells, transiently or stably (Luke-S1 line, ATCC PTA-127022) expressing reporter #15; settings: 500 μM phenanthroline 1 hour, then 10 μM CCCP 30 minutes
Description: Example 2 refers to FIG. 4 and illustrates hydrolysis of reporter #01 and reporter #15. For this example, transfected cells were selected by puromycin. Reporter cells were exposed for 30 minutes to 10 μM CCCP before being harvested in RIPA buffer and subjected to 12% SDS-PAGE followed by Western-blotting. […] Full-length reporter #01 has a predicted size of 39.6 kDa but was not detected in Western blots. […] At the same time, reporter #15 is not processed upon import, but migrated at its expected size of 31.9 kDa. (Example 7 establishes mitochondrial import by showing co-migration of reporter #15 with OPA1 and OMA1 in mitochondria-enriched fractions.) Reporter #15 appears to be more abundant and stable, which may explain its better performance. […] This provides additional evidence that reporter #15 is indeed localized in mitochondria where it is recognized and hydrolyzed by OMA1. […] Therefore, phenanthroline was used as a positive control in the reporter assay. If reporter #15 indeed is cleaved by OMA1, then phenanthroline should prevent this at least to a certain extend by inhibiting OMA1 and accordingly preserving the signal. Hek293T cells were transfected with reporter gene #15 as described in the preceding example. […] After 30 minutes, the medium was replaced with furimazine (1:100 in OptiMEM), and bioluminescence measured as described in Example 1.

mitochondria = settings: FDA labels, cited from earlier work
OMA1 protease [4] = target: T1, OMA1 protease; experiment: Rep#01 OMA1 reporter bioluminescence assay in Hek293T cells; assay type: cell-based; set-up: The OMA1 enzyme is dormant under physiological cell culture conditions in these cells; endogenous in cells; host or cells: Hek293T cells, transiently or stably (Luke-S1 line, ATCC PTA-127022) expressing reporter #15; settings: 30 minutes exposure, CCCP 10 μM
From the text: Example 1 provides a nonlimiting example of generation and use of a reporter of present invention and illustrates its function. To this end, generation and use of reporter gene #01 (SEQ ID NO: 01) and reporter gene #15 (SEQ ID NO: 15) are described and their function compared to each other. The general design of a reporter of present invention is illustrated in FIG. 1A and its working principle in FIG. 1B. A reporter in general, and reporter gene #01 and reporter gene #15 in particular, can be generated as follows. DNA sequences of a reporter may be codon-optimized in silico or by any other way for expression in a suitable host. DNA sequences of reporter genes #01 and #15 were codon-optimized for expression in humans (SEQ ID NO: 02 and SEQ ID NO: 16, respectively). The (optimized) sequences were synthesized and cloned into a pcDNA3.1 expression vector under the control of a CMV promotor (see FIG. 1 for an illustration of such vector). Of course, an expression system and a host should match for best results. The host in this example were Hek293T cells, which were maintained under standard culture conditions in DMEM with 10% Fetal Bovine Serum and 1% Pen/Strep. For an experiment, Hek293T cells were seeded in opaque white tissue-culture treated 96-well plates at 80% confluency and transfected with vectors carrying reporter gene #01 and reporter gene #15 and 24 hours later incubated for 30 minutes at 37° C. in OptiMEM or in OptiMEM with 10 μM CCCP. After 30 minutes, the OptiMEM cell-culture media was replaced with luciferase substrate (furimazine, Promega) diluted 1:100 in OptiMEM, and bioluminescence was measured with a Fluoroskan Ascent FL (Thermo Scientific) using a 517 nm single-pass filter and 200 milliseconds integration time. […]
Example 5 illustrates how mitochondrial toxicity can be measured with reporter and assays of present invention. […] Hek293T cells expressing reporter #01 and #15 were exposed to CCCP, tipranavir and sorafenib (in OptiMEM) for 30 minutes before the medium was replaced with furimazine (1:100), and bioluminescence measured.

Molecule | OMA1 modulating properties (OMA1 protease [1]) | other results
Cc1cc(Nc2ncc(Cl)c(Nc3ccccc3S(=O)(=O)C(C)C)n2)c(OC(C)C)cc1C1CCNCC1 [Ceritinib] | OMA1 modulating properties | –
Cc1c2oc3c(C)ccc(C(=O)N[C@@H]4C(=O)N[C@H](C(C)C)C(=O)N5CCC[C@H]5C(=O)N(C)CC(=O)N(C)[C@@H](C(C)C)C(=O)O[C@@H]4C)c3nc-2c(C(=O)N[C@@H]2C(=O)N[C@H](C(C)C)C(=O)N3CCC[C@H]3C(=O)N(C)CC(=O)N(C)[C@@H](C(C)C)C(=O)O[C@@H]2C)c(N)c1=O [Dactinomycin] (I: T[dV]P[Sar][NMeV] / II: T[dV]P[Sar][NMeV]; ester I:1-I:C, II:1-II:C; linker I:N-II:N via Actinocin(9to1)) | OMA1 modulating properties | –
COc1cccc2c1C(=O)c1c(O)c3c(c(O)c1C2=O)C[C@@](O)(C(C)=O)C[C@@H]3O[C@H]1C[C@H](N)[C@H](O)[C@H](C)O1 [Daunorubicin hydrochloride] | OMA1 modulating properties | –
COc1cccc2c1C(=O)c1c(O)c3c(c(O)c1C2=O)C[C@@](O)(C(=O)CO)C[C@@H]3O[C@H]1C[C@H](N)[C@H](O)[C@H](C)O1 [Doxorubicin hydrochloride] | OMA1 modulating properties | –
CC(C)(O)CNc1nc(Nc2ccnc(C(F)(F)F)c2)nc(-c2cccc(C(F)(F)F)n2)n1 [Enasidenib] | OMA1 modulating properties | –
CN1CCN(c2ccc(C(=O)Nc3n[nH]c4ccc(Cc5cc(F)cc(F)c5)cc34)c(NC3CCOCC3)c2)CC1 [Entrectinib] | OMA1 modulating properties | –
CC(=O)[C@]1(O)Cc2c(O)c3c(c(O)c2[C@@H](O[C@H]2C[C@H](N)[C@H](O)[C@H](C)O2)C1)C(=O)c1ccccc1C3=O [Idarubicin hydrochloride] | OMA1 modulating properties | –
Cc1ccc(NC(=O)c2ccc(CN3CCN(C)CC3)cc2)cc1Nc1nccc(-c2cccnc2)n1 [Imatinib] | OMA1 modulating properties | –
Clc1ccc(C(c2ccccc2Cl)C(Cl)Cl)cc1 (stereo not drawn) [Mitotane] | OMA1 modulating properties | –
C=CC(=O)Nc1cc(Nc2nccc(-c3cn(C)c4ccccc34)n2)c(OC)cc1N(C)CCN(C)C [Osimertinib] | OMA1 modulating properties | –
FC(F)(F)c1ccc(CNc2ccc(Cc3c[nH]c4ncc(Cl)cc34)cn2)cn1 [Pexidartinib] | OMA1 modulating properties | –
O=C(c1ccc(OCCN2CCCCC2)cc1)c1c(-c2ccc(O)cc2)sc2cc(O)ccc12 [Raloxifene] | OMA1 modulating properties | –
CNC(=O)c1cc(Oc2ccc(NC(=O)Nc3ccc(Cl)c(C(F)(F)F)c3)c(F)c2)ccn1 [Regorafenib] | OMA1 modulating properties | –
CN(C)C(=O)c1cc2cnc(Nc3ccc(N4CCNCC4)cn3)nc2n1C1CCCC1 [Ribociclib] | OMA1 modulating properties | –
O=C(/C=C\n1cnc(-c2cc(C(F)(F)F)cc(C(F)(F)F)c2)n1)NNc1cnccn1 [Selinexor] | OMA1 modulating properties | –
CC/C(=C(\c1ccccc1)c1ccc(OCCN(C)C)cc1)c1ccccc1 [Tamoxifen citrate] | OMA1 modulating properties | –
Cc1cc(Nc2ncnc3ccc(NC4=NC(C)(C)CO4)cc23)ccc1Oc1ccn2ncnc2c1 [Tucatinib] | OMA1 modulating properties | –
CCCCC(=O)OCC(=O)[C@]1(O)Cc2c(O)c3c(c(O)c2[C@@H](O[C@H]2C[C@H](NC(=O)C(F)(F)F)[C@H](O)[C@H](C)O2)C1)C(=O)c1c(OC)cccc1C3=O [Valrubicin] | OMA1 modulating properties | –
N.N.[Cl][Pt][Cl] [cisplatin] | – | OPA1 cleavage (OPA1): can promote OPA1 cleavage
c1cnc2c(c1)ccc1cccnc12 [phenanthroline] | – | effect on OMA1 protease (OMA1 protease [2]): can inhibit OMA1 protease in vitro; bioluminescence signal of reporter #15 after CCCP with inhibitor pretreatment (OMA1 protease [3]): prevented reporter #15 deactivation; also recorded: largely preserved
CNC(=O)c1cc(Oc2ccc(NC(=O)Nc3ccc(Cl)c(C(F)(F)F)c3)cc2)ccn1 [sorafenib, Sorafenib] | OMA1 modulating properties | OPA1 cleavage (OPA1): can promote OPA1 cleavage; mitochondrial toxicity (mitochondria): exhibit mitochondrial toxicity; bioluminescence signal of reporter #15 (OMA1 protease [1]; Hek293T, 30 minutes exposure, CCCP 10 μM): significantly reduced signal; also recorded: significantly reduced bioluminescence; bioluminescence signal of reporter #01 (OMA1 protease [4]): significantly reduced bioluminescence; bioluminescence signal of reporter #01 (OMA1 protease [4]; listed as Sorafenib): comparable effects
CCC[C@@]1(CCc2ccccc2)CC(O)=C([C@H](CC)c2cccc(NS(=O)(=O)c3ccc(C(F)(F)F)cn3)c2)C(=O)O1 [tipranavir] | – | mitochondrial toxicity (mitochondria): exhibit mitochondrial toxicity; mitochondrial toxicity (mitochondria; listed as Tipranavir): cause mitochondrial toxicity
Dabrafenib mesylate | OMA1 modulating properties | –
